Measurements as given in patent US20240165244A1 (Prelude Therapeutics Incorporated, priority 2022, published 2024).

What was measured:
SMARCA2 = target: T1, SMARCA2 (Homo sapiens, UniProt P51531); experiment: SMARCA2 HiBiT degradation assay in HeLa cells; format: cell-based; settings: 18 hours, highest concentration 10 μM
T1 construct: SMARCA2-HiBiT knock-in Hela monoclonal cell (CS302366); host or cells: HeLa monoclonal cells with heterozygous HiBiT knock-in at the endogenous SMARCA2 locus
Method: (§1) SMARCA2 HiBiT and SMARCA4 HiBiT Degradation Assay
HiBiT peptide knock-in of SMARCA2 in LgBiT expressing HEK293T cells was performed by CRISPR-mediated tagging system as described Promega. The homozygous HiBiT knock-in on c-terminus SMARCA2 was confirmed by sanger sequence. SMARCA2-HiBiT knock-in Hela monoclonal cell (CS302366) and SMARCA4-HiBiT knock-in Hela monoclonal cell (CS3023226) were purchased from Promega. The heterozygous HiBiT-knock-in was confirmed by sanger sequence in both SMARCA2-HiBiT and SMARCA4-HiBiT monoclonal cells.
(§2) SMARCA2 HiBiT and SMARCA4 HiBiT Degradation Assay in HeLa Cells
Dispense 10 ul aliquot of prepared Hela-SMARCA2-HiBiT or Hela-SMARCA4-HiBiT cells (1:1 ratio of cells:Trypan Blue (#1450013, Bio-Rad)) onto cell counting slide (#145-0011, Bio-Rad) and obtain cell density and cell viability using cell counter (TC20, Bio-Rad). Remove appropriate volume of resuspended cells from culture flask to accommodate 2500 cells/well @ 20 μL/well. Transfer Hela-HiBiT cells to 50 mL conical (#430290, Corning). Spin down at 1000 rpm for 5 min using tabletop centrifuge (SPINCHRON 15, Beckman). Discard supernatant and resuspend cell pellet in modified EMEM (#30-2003, ATCC) cell culture media containing 10% FBS (F2422-500ML, Sigma), and 1× Penicillin/Streptomycin ([…]) (30-002-CI, Corning) to a cell density of 125,000 cells/mL. Dispense 20 μLof resuspended Hela-HiBit cells per well in 384-well TC treated plate (#12-565-343, Thermo Scientific) using standard cassette (#50950372, Thermo Scientific) on Multidrop Combi (#5840310, Thermo Scientific) inside laminar flow cabinet.
Compounds were dissolved in DMSO to make 10 mM stock and 3-fold series dilutions were further conducted keeping the highest concentration 10 μM. Dispense test compounds onto plates using digital liquid dispenser (D300E, Tecan). Incubate plates in humidified tissue culture incubator @37° C. for 18 hours. Add 20 μL of prepared Nano-Glo® HiBiT Lytic detection buffer (N3050, Promega) to each well of 384-well plate using small tube cassette (#24073295, Thermo Scientific) on Multidrop Combi, incubate @ RT for 30-60 min. Read plates on microplate reader (Envision 2105, PerkinElmer) using 384 well Ultra-Sensitive luminescence mode. Raw data files and compound information reports are swept into centralized data lake and deconvoluted using automated scripts designed by TetraScience, Inc. Data analysis, curve-fitting and reporting done in Dotmatics Informatics Suite using Screening Ultra module.

SMARCA4 = target: T2, SMARCA4 (Homo sapiens, UniProt P51532); experiment: SMARCA4 HiBiT degradation assay in HeLa cells; format: cell-based; settings: 18 hours, highest concentration 10 μM
T2 construct: SMARCA4-HiBiT knock-in Hela monoclonal cell (CS3023226); host or cells: HeLa monoclonal cells with heterozygous HiBiT knock-in at the endogenous SMARCA4 locus
T2 sequence (P51532 whole entry): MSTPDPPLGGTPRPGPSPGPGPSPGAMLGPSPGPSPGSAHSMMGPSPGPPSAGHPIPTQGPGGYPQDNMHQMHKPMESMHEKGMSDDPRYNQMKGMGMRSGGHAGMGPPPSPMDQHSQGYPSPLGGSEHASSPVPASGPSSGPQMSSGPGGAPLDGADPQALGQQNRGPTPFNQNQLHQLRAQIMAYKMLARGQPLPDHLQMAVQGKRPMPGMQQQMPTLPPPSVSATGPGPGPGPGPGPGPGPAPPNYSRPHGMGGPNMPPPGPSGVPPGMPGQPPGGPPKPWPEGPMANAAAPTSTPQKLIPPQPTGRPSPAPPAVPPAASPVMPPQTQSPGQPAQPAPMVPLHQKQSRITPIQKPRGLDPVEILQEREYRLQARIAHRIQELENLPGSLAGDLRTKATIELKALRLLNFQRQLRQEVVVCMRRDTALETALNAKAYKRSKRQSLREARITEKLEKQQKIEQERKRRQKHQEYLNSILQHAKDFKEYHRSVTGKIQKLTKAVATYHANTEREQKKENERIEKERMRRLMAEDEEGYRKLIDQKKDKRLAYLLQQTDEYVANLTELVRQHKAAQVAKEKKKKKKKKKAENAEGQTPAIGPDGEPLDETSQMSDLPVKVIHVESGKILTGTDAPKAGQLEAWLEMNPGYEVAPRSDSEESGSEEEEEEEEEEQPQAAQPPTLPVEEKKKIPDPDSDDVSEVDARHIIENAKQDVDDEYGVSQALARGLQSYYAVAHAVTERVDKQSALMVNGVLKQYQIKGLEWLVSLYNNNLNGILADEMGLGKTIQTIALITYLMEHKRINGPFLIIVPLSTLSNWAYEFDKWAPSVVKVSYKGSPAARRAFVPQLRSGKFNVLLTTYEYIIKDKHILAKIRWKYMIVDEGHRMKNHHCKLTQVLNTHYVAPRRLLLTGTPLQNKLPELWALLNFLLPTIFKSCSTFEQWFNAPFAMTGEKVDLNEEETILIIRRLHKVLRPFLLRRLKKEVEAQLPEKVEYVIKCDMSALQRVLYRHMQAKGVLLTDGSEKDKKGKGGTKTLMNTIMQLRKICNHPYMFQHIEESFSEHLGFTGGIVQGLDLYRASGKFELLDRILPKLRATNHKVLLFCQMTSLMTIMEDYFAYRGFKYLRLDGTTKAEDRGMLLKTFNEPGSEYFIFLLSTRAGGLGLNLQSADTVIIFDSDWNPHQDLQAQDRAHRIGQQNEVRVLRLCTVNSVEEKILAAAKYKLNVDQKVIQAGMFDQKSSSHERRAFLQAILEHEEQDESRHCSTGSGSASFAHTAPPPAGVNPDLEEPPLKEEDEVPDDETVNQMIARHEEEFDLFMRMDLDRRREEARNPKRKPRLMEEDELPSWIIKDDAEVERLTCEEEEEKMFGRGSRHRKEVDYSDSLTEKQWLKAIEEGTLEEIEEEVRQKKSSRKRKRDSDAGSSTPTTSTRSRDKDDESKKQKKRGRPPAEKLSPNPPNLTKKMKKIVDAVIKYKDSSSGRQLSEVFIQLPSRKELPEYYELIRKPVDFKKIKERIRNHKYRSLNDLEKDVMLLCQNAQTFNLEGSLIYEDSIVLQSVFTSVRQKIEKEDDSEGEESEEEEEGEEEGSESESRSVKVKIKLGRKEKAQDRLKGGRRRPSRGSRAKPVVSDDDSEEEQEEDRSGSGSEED
Method: as §1
HiBiT peptide knock-in of SMARCA2 in LgBiT expressing HEK293T cells was performed by CRISPR-mediated tagging system as described Promega. […] SMARCA2-HiBiT knock-in Hela monoclonal cell (CS302366) and SMARCA4-HiBiT knock-in Hela monoclonal cell (CS3023226) were purchased from Promega.
as §2
Remove appropriate volume of resuspended cells from culture flask to accommodate 2500 cells/well @ 20 μL/well. […] Spin down at 1000 rpm for 5 min using tabletop centrifuge (SPINCHRON 15, Beckman).
Dispense test compounds onto plates using digital liquid dispenser (D300E, Tecan). Incubate plates in humidified tissue culture incubator @37° C. for 18 hours. […] Raw data files and compound information reports are swept into centralized data lake and deconvoluted using automated scripts designed by TetraScience, Inc. Data analysis, curve-fitting and reporting done in Dotmatics Informatics Suite using Screening Ultra module.

T1 sequence (P51531 whole entry): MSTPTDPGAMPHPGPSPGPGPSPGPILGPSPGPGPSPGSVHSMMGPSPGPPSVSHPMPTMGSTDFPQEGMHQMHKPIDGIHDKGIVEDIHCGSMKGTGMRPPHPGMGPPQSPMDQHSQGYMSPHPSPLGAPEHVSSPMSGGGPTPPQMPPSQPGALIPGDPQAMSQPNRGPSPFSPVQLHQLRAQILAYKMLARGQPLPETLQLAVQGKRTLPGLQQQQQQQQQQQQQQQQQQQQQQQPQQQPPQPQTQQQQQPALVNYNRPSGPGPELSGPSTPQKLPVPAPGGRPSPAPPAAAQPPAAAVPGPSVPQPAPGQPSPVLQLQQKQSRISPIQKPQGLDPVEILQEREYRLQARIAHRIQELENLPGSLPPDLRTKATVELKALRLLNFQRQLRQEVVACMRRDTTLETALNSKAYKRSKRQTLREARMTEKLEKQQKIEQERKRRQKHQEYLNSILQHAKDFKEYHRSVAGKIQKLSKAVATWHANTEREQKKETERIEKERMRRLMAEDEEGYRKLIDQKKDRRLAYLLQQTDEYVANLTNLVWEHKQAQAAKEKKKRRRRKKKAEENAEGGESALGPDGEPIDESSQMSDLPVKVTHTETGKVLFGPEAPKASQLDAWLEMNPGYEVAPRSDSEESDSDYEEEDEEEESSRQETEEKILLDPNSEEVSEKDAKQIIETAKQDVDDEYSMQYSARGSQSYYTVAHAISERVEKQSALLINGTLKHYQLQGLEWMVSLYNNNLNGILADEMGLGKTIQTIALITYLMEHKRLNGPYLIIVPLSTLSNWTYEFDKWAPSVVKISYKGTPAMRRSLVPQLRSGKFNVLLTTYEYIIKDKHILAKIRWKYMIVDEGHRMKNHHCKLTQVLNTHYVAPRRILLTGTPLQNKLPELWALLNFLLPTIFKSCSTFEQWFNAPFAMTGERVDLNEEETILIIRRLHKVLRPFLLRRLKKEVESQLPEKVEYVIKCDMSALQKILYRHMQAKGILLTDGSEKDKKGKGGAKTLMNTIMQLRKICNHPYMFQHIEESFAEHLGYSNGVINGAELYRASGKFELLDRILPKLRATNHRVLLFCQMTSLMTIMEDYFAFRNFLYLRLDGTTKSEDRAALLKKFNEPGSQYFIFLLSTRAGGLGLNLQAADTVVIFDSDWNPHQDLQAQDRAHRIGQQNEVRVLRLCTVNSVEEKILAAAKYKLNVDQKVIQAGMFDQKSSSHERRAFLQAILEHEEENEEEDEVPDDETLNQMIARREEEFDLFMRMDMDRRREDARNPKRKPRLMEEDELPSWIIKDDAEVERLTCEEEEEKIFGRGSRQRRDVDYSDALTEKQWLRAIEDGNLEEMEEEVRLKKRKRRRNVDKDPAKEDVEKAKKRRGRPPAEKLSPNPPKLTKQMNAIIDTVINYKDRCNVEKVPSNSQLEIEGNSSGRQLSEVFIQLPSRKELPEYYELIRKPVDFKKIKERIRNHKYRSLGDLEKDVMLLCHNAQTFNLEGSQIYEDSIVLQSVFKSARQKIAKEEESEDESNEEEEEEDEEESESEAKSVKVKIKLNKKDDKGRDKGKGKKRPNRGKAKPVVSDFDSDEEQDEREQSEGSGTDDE

Structure (SMILES)	DC50 (SMARCA2) [nM]	Dmax (SMARCA2) [%]	DC50 (SMARCA4) [nM]	Dmax (SMARCA4) [%]
Cc1cc(O[C@H]2CN3c4cc(-c5cccc(F)c5O)nnc4NC[C@@]3(C)C2)ncc1CN1CCN(c2ccc3c(c2)C(=O)N(C2CCC(=O)NC2=O)C3)CC1 (stereo partly drawn) [Example 55, 3-(6-(4-((6-(((6aR,8R)-2-(3-fluoro-2-hydroxyphenyl)-6a-methyl-5,6,6a,7,8,9-hexahydropyrrolo[1′,2′:4,5]pyrazino[2,3-c]pyridazin-8-yl)oxy)-4-methylpyridin-3-yl)methyl)piperazin-1-yl)-1-oxoisoindolin-2-yl)piperidine-2,6-dione]	< 100	> 75	< 100	50 to 75
O=C1CCC(N2Cc3ccc(C4CCN(Cc5cnc(O[C@H]6CN7c8cc(-c9cccc(F)c9O)nnc8NC[C@@]7(C(F)F)C6)c(F)c5)CC4)cc3C2=O)C(=O)N1 (stereo partly drawn) [Example 88, 3-(6-(1-((6-(((6aR,8R)-6a-(difluoromethyl)-2-(3-fluoro-2-hydroxyphenyl)-5,6,6a,7,8,9-hexahydropyrrolo[1′,2′:4,5]pyrazino[2,3-c]pyridazin-8-yl)oxy)-5-fluoropyridin-3-yl)methyl)piperidin-4-yl)-1-oxoisoindolin-2-yl)piperidine-2,6-dione]	< 100	> 75	100 to 1000	< 50
CC(C)c1nc(O[C@H]2CN3c4cc(-c5cccc(F)c5O)nnc4NC[C@]3(C(F)F)C2)ncc1CN1CCN(c2ccc3c(c2)C(=O)N(C2CCC(=O)NC2=O)C3)CC1 (stereo partly drawn) [Example 50, 3-(6-(4-((2-(((6aS,8R)-6a-(difluoromethyl)-2-(3-fluoro-2-hydroxyphenyl)-5,6,6a,7,8,9-hexahydropyrrolo [1′,2′:4,5]pyrazino[2,3-c]pyridazin-8-yl)oxy)-4-isopropylpyrimidin-5-yl)methyl)piperazin-1-yl)-1-oxoisoindolin-2-yl)piperidine-2,6-dione]	< 100	> 75	< 100	50 to 75
Cc1cc(O[C@@H]2C[C@@H]3CNc4nnc(-c5cc(F)cc(F)c5O)cc4N3C2)c(C)cc1CN1CCN(c2ccc3c(c2)C(=O)N(C2CCC(=O)NC2=O)C3)CC1 (stereo partly drawn) [Example 9, 3-(6-(4-(4-(((6aR,8R)-2-(3,5-difluoro-2-hydroxyphenyl)-5,6,6a,7,8,9-hexahydropyrrolo[1′,2′:4,5]pyrazino[2,3-c]pyridazin-8-yl)oxy)-2,5-dimethylbenzyl)piperazin-1-yl)-1-oxoisoindolin-2-yl)piperidine-2,6-dione]	< 100	> 75	< 100	50 to 75
Cc1nc(CN2CCN(c3ccc4c(c3)C(=O)N([C@H]3CCC(=O)NC3=O)C4)CC2)cnc1O[C@H]1CN2c3cc(-c4cccc(F)c4O)nnc3NC[C@]2(CF)C1 [Example 66, (S)-3-(6-(4-((5-(((6aS,8R)-2-(3-fluoro-2-hydroxyphenyl)-6a-(fluoromethyl)-5,6,6a,7,8,9-hexahydropyrrolo[1′,2′:4,5]pyrazino[2,3-c]pyridazin-8-yl)oxy)-6-methylpyrazin-2-yl)methyl)piperazin-1-yl)-1-oxoisoindolin-2-yl)piperidine-2,6-dione]	< 100	> 75	< 100	50 to 75
O=C1CCC(N2Cc3ccc(N4CCN(Cc5ccc(O[C@@H]6C[C@@H]7CNc8nnc(-c9cccc(Cl)c9O)cc8N7C6)cc5)CC4)cc3C2=O)C(=O)N1 (stereo partly drawn) [Example 8, 3-(6-(4-(4-(((6aR,8R)-2-(3-chloro-2-hydroxyphenyl)-5,6,6a,7,8,9-hexahydropyrrolo[1′,2′:4,5]pyrazino[2,3-c]pyridazin-8-yl)oxy)benzyl)piperazin-1-yl)-1-oxoisoindolin-2-yl)piperidine-2,6-dione]	< 100	> 75	< 100	> 75
Cc1cc(CN2CCC(c3ccc4c(c3)C(=O)N([C@H]3CCC(=O)NC3=O)C4)CC2)ncc1O[C@H]1CN2c3cc(-c4cccc(F)c4O)nnc3NC[C@]2(C(F)F)C1 [Example 92, (S)-3-(6-(1-((5-(((6aS,8R)-6a-(difluoromethyl)-2-(3-fluoro-2-hydroxyphenyl)-5,6,6a,7,8,9-hexahydropyrrolo[1′,2′:4,5]pyrazino[2,3-c]pyridazin-8-yl)oxy)-4-methylpyridin-2-yl)methyl)piperidin-4-yl)-1-oxoisoindolin-2-yl)piperidine-2,6-dione]	< 100	> 75	< 100	50 to 75
Cc1nc(O[C@H]2CN3c4cc(-c5cccc(F)c5O)nnc4NC[C@]3(CF)C2)c(F)cc1CN1CCN(c2ccc3c(c2)C(=O)N([C@H]2CCC(=O)NC2=O)C3)CC1 [Example 69, (S)-3-(6-(4-((5-fluoro-6-(((6aS,8R)-2-(3-fluoro-2-hydroxyphenyl)-6a-(fluoromethyl)-5,6,6a,7,8,9-hexahydropyrrolo[1′,2′:4,5]pyrazino[2,3-c]pyridazin-8-yl)oxy)-2-methylpyridin-3-yl)methyl)piperazin-1-yl)-1-oxoisoindolin-2-yl)piperidine-2,6-dione]	< 100	> 75	< 100	> 75
CC[C@]12CNc3nnc(-c4cccc(F)c4O)cc3N1C[C@H](Oc1cnc(CN3CCC(c4ccc5c(c4)C(=O)N([C@H]4CCC(=O)NC4=O)C5)CC3)c(C)c1)C2 [Example 104, (S)-3-(6-(1-((5-(((6aS,8R)-6a-ethyl-2-(3-fluoro-2-hydroxyphenyl)-5,6,6a,7,8,9-hexahydropyrrolo[1′,2′:4,5]pyrazino[2,3-c]pyridazin-8-yl)oxy)-3-methylpyridin-2-yl)methyl)piperidin-4-yl)-1-oxoisoindolin-2-yl)piperidine-2,6-dione]	< 100	> 75	< 100	50 to 75
Cc1cc(O[C@H]2CN3c4cc(-c5cccc(F)c5O)nnc4NC[C@]3(C)C2)c(C)nc1CN1CCN(c2ccc3c(c2)C(=O)N([C@H]2CCC(=O)NC2=O)C3)CC1 [Example 80, (S)-3-(6-(4-((5-(((6aS,8R)-2-(3-fluoro-2-hydroxyphenyl)-6a-methyl-5,6,6a,7,8,9-hexahydropyrrolo[1′,2′:4,5]pyrazino[2,3-c]pyridazin-8-yl)oxy)-3,6-dimethylpyridin-2-yl)methyl)piperazin-1-yl)-1-oxoisoindolin-2-yl)piperidine-2,6-dione]	< 100	> 75	< 100	50 to 75
CC[C@@]12CNc3nnc(-c4cccc(F)c4O)cc3N1C[C@H](Oc1cc(C)c(CN3CCN(c4ccc5c(c4)C(=O)N(C4CCC(=O)NC4=O)C5)CC3)c(C)n1)C2 (stereo partly drawn) [Example 62, 3-(6-(4-((6-(((6aR,8R)-6a-ethyl-2-(3-fluoro-2-hydroxyphenyl)-5,6,6a,7,8,9-hexahydropyrrolo[1′,2′:4,5]pyrazino[2,3-c]pyridazin-8-yl)oxy)-2,4-dimethylpyridin-3-yl)methyl)piperazin-1-yl)-1-oxoisoindolin-2-yl)piperidine-2,6-dione]	< 100	> 75	100 to 1000	< 50
CN(c1ccc(CN2CCN(c3ccc4c(c3)C(=O)N(C3CCC(=O)NC3=O)C4)CC2)cn1)[C@@H]1C[C@@H]2CNc3nnc(-c4cccc(F)c4O)cc3N2C1 (stereo partly drawn) [Example 35, 3-(6-(4-((6-(((6aR,8R)-2-(3-fluoro-2-hydroxyphenyl)-5,6,6a,7,8,9-hexahydro-pyrrolo[1′,2′:4,5]pyrazino[2,3-c]pyridazin-8-yl)(methyl)amino)pyridin-3-yl)methyl)piperazin-1-yl)-1-oxoisoindolin-2-yl)piperidine-2,6-dione]	> 1000	50 to 75	> 1000	< 50
